# Experimental data from US20070009571A1, “Novel haptotactic peptides” (Hadasit Medical Research Services & Development Ltd., priority 1998, published 2007).
# “Also recorded” adds a separate entry of the source. Where two headings read alike, the source gives them in different places. Marks after values point to notes of the source that are not given here. No end group written: not given here.
# Legend:
# BAEC = test: Chemotaxis, micro-Boyden chamber assay; assay type: cell-based, bovine
# Procedure: Chemotaxis was evaluated using 48-well plastic Microtaxis micro-Boyden chambers. Polycarbonate filters with pore size of 8 μm were coated with fibronectin for 2 hours at 37° C. Conditioned medium from 3T3 cells served as a positive control. Test solution (26 μl) containing the tested peptides or protein or medium with no additions that served as control were placed in the lower chamber, covered with the filter. 50 μl cell suspension was introduced to the upper chamber of each well. The number of cells/well varied in the range of 5,000-10,000 in different experiments. The device loaded with cells was incubated at 37° C. for 4-5 hours. The filter was then removed and the non-migrating cells on its upper part were carefully wiped off with a damp cotton swab. The filter was fixed in methanol and stained with Accustain (modified Wright stain solution Sigma Diagnostics: St. Lois, Mo.). Cells that crossed or were retained within the filter were counted microscopically at low magnification so that the viewing field corresponded to the whole area of each well. Each experimental variant was performed in duplicated or triplicates and the data from, three successful experiments were normalized to the values of the positive control and averaged.
# The chemotactic response of BAEC to a soluble gradient of […], the most haptotactic of the peptides studied was as follows. The results can be seen in FIG. 6. […] A similar, though more moderate, chemotaxis response to Cβ (SEQ ID NO:1) was obtained with HF.
# EC cells (BAEC) = test: FACS analysis of binding of FITC-labeled peptides; assay type: cell-based, bovine; details: 10 μg/ml or 100 μg/ml, medium with 0.1% albumin
# Procedure: EC and HF cell monolayers were washed and then incubated with trypsin-versene. Cells were then washed with growth medium and resuspended in medium with 0.1% albumin. FITC-labeled peptide-Cβ (SEQ ID NO:1) was incubated with 5×10^5 EC cells (10 μg/ml or 100 μg/ml) or with 2.5×10^5 HF cells (100 μg/ml) in medium with 0.1% albumin. FITC-labeled peptide-CαE (SEQ ID NO:3) and Cα (SEQ ID NO:4) (10 μg/ml) was incubated with 5×10^5 EC cells in medium with 0.1% albumin. Cells were then washed with PBS and 1% albumin. Cells were resuspended in PBS and 1% albumin and then filtered through a mesh for FACS analysis, in which the FITC tluorescence was measured for each cell.
# The control is without FITC-labeled peptide (background fluorescence).
# In competition experiments, cells were incubated with various concentrations of unlabeled Cβ (SEQ ID NO:1) for 15 mins, an aliquot of Cβ^FITC (4 mM) was added and the sample was subjected to FACS analysis. […] The Cβ^FITC (SEQ ID NO:1) uptake experiments best fitted a linear-quadratic curve-fit.
# HF = test: Cell proliferation, MTS assay; assay type: cell-based, human; details: 0.4 nM-4 μM, 96 well plates
# Procedure: Cell proliferation was evaluated by measuring cell density as a function of time by two different colorimetric assays. The MTS colorimetric assay (CellTitre 96 Aqueous Assay by Promega) is based on dehydrogenase conversion of MTS (methyl tetrazolium salt) by viable cells to […] (Ge M. Tang, G., Ryan. T. J. and Malik. A. B., “Fibrinogen degradation product fragment D induces endothelial cell detachment by activation of cell-mediated fibrinolysis”, J. Clin. Inves., 90:2508-2516 (1992)); the methylene blue (MB) assay is based on the staining of monolayer cells after their fixation, and reading the absorbence of the absorbed dye.
# The MTS assay for viable cells was performed as follows: 30 μL of freshly prepared MTS/PMS were added to each well; following 2 hrs incubation at 37° C., the plates were placed on a computer driven microplate reader (Anthos HT-II, Salzburg, Austria), programmed to shake the plate for 1 minute before reading the optical density (OD) of the dye at 490 nm. The measurements were repeated following 4 and 6 hours of incubation.
# Peptides (Cα (SEQ ID NO:4), […], PreCγ (SEQ ID NO:2) and CαE (SEQ ID NO:3)), up to 1 μg/mL or 100 μg/mL fibrinogen or thrombin (final concentrations) were added to the culture medium and cell numbers were assayed by day 3 using the MTS assay. The change in cell number was compared with that observed versus saline control. Of the 5 peptides tested at dosages up to 10 μg/mL (approximately equimolar to 1 μg/mL fibrinogen), none of the peptides exerted significant effect on cell proliferation (FIG. 7).
# tested cell lines = test: Haptotaxis assay, statements over the tested cell lines; assay type: cell-based; details: ligands covalently bound to SB; for haptotactic response / cell binding to SB-ligand, in words: near confluent cell cultures
# Procedure: (§1) Peptides or fibrinogen were covalently bound to CNBr activated sepharose beads (SB) (Pharmacia, Piscataway, N.J.) using techniques previously used to bind albumin, fibrinogen and thrombin. Briefly, CNBr-activated sepharose 4B (Pharmacia) was washed with 1N HCl, and suspended in the coupling buffer (pH 8.3), following the protocol supplied by the manufacturer. The peptides were dialyzed against the coupling buffer to remove Tris. Peptides (1 mg) were not highly water soluble. The peptides were dissolved in 1 mL 70% ethanol or dimethylformamide, and were then mixed into the coupling buffer containing 1 mL CNBr-activated sepharose. The suspension was gently agitated overnight, then centrifuged 500×g to pack the beads. This procedure covalently binds more than 95% of proteins or peptides including fibrinogen or peptides-CαE (SEQ ID NO:3), Cβ (SEQ ID NO:1) and preCγ (SEQ ID NO:2) to the beads determined by Abs280 readings of the solutions.
# (§2) The migratory/adhesion response of cells to proteins (such as fibrinogen) or peptides covalently bound to SB was measured as follows. Cells were grown in 6 or 12 well plates to near confluence or in suspension until they covered about ½ to ⅔ of the plate surface. At that point, about […] of a suspension containing 50% v/v SB coated with the test protein or peptide were added to the plate and dispersed by gentle shaking for 1 min. The plate was then returned to the incubator and examined at different times by inverted phase microscopy.
# (§3) The SB (naked or ligand bound) sedimented onto the nearly confluent cell layer and occasionally made physical contact with cell membranes on the plate (ascribed to Brownian motion or micro-convection currents). […] Typically, 300 beads (but not less then 200) were counted in each well and the ratio of SB bound to the cells relative to total number SB could be calculated (SB bound/SB total). Counting the percentage of SB attached to the cell surface at different time intervals provided a quantitative assay of the kinetics of the attachment of coated beads to cells. Negative control with uncoated SB or positive controls with SB-fibrinogen were employed with at least 3 wells measured for each. The statistical error was calculated from the square root of the total counts.
# (§4) The peptides of the present invention were synthesized and tested in cell culture systems as described above. Essentially, peptides were covalently attached to sepharose beads to form SB-Cα (SEQ ID NO:4), SB-Cβ (SEQ ID NO:1), SB-PreCγ (SEQ ID NO:2), SB-Cγ (SEQ ID NO:5) and SB-CαE (SEQ ID NO:3), respectively, as was fibrinogen to form SB-Fib. The SB-peptide combination was then incubated with cultured cells. […] The haptotactic potency of the peptides is summarized in Table 3 with the percentage of SB-Fib/peptide attached to cells (by day 4) given in columns 2-5 of Table 3.
# [1] = test system: bovine aortic endothelial cells (EC, BAEC); test: Haptotaxis assay: attachment of ligand-coated SB to cultured cells; assay type: cell-based; details: for % Binding of peptide-coated SB to normal cultured cells: percentage of SB-ligand attached to cells by day 4
# Procedure: as §1, §2, §3, §4
# [2] = test system: normal human skin fibroblasts (HF); test: Haptotaxis assay: attachment of ligand-coated sepharose beads (SB) to cultured cells; assay type: cell-based; details: for % Binding of peptide-coated SB to normal cultured cells: percentage of SB-ligand attached to cells by day 4
# Procedure: as §1, §2, §3, §4
# [3] = test system: porcine smooth muscle cells (SMC); test: Haptotaxis assay: attachment of ligand-coated SB to cultured cells; assay type: cell-based; details: for % Binding of peptide-coated SB to normal cultured cells: percentage of SB-ligand attached to cells by day 4
# Procedure: as §1, §2, §3, §4
# [4] = test system: human ovarian carcinoma cells (OV-1063); test: as above; assay type: cell-based; details: percentage of SB-ligand attached to cells by day 4
# Procedure: as §1, §2, §3, §4
# [5] = test system: normal murine fibroblasts (MF); test: as above; assay type: cell-based; details: percentage of SB-ligand attached to cells by day 4
# Procedure: as §1, §2, §3, §4
# [6] = test system: normal human keratinocytes; test: as above; assay type: cell-based; details: Keratinocyte; percentage of SB-ligand attached to cells by day 4
# Procedure: as §1, §2, §3, §4
# [7] = test system: murine mammary adenocarcinoma cells (EMT-6); test: as above; assay type: cell-based; details: percentage of SB-ligand attached to cells by day 4
# Procedure: as §1, §2, §3, §4
Substance,"binding/uptake of FITC-labeled peptide by FACS, in words (EC cells (BAEC))",proliferative response of HF (MTS proliferation assay) (HF),"haptotactic response / cell binding to SB-ligand, in words (tested cell lines)","cell binding / haptotactic response to SB-ligand, in words [1]",% Binding of peptide-coated SB to normal cultured cells [2] [%],% Binding of peptide-coated SB to normal cultured cells [1],% Binding of peptide-coated SB to normal cultured cells [3] [%],also measured
"EADHEGTHSTKRGHAKSRP (Equivalent to the c-terminus of fibrinogen alpha-chain) [Cα, reference compound]",did not bind,none of these peptides stimulated or inhibited proliferation,inactive,–,–,–,–,"chemotactic response of BAEC, in words (BAEC; soluble gradient, up to 40 μg/ml, conditioned medium = 100% chemotaxis): elicited no response; haptotactic response / cell binding to SB-ligand, in words (tested cell lines; listed as peptide-Cα): no cell adhesive effects"
"FITC-labeled peptide Cα: FITC-labeled peptide Cα (SEQ ID NO:4), negative control (EADHEGTHSTKRGHAKSRP; not fully specified (N-terminus); also: FITC label, position not given here) [reference compound]",bound only slightly (non-specifically),–,–,–,–,–,–,–
"FITC-labeled peptide Cγ: FITC-labeled peptide Cγ (SEQ ID NO:5) (LTIGEGQQHHLGGAKQAGDV; not fully specified (N-terminus); also: FITC label, position not given here) [reference compound]",bound only slightly (non-specifically),–,–,–,–,–,–,–
KTRWYSMKKTTMKIIPFNRL (Equivalent to an internal sequence of fibrinogen gamma-chain) [PreCγ],–,none of these peptides stimulated or inhibited proliferation,significant haptotactic responses,greatest haptotactic response,–,–,–,"chemotaxis, in words (BAEC; concentrations of up to 40 μM): significant chemotaxis; haptotactic response / cell binding to SB-ligand, in words (tested cell lines; listed as preCγ): highly haptotactic; also recorded: most potent"
"LTIGEGQQHHLGGAKQAGDV (Equivalent to the c-terminus of fibrinogen gamma-chain) [Cγ, control peptide homologous to the C-terminus of the fibrinogen γ chain, γ 392-411, reference compound]",–,none of these peptides stimulated or inhibited proliferation,minor negligible activity,only negligible effect,–,–,–,"cell binding / haptotactic response to SB-ligand, in words ([1]; listed as peptide Cγ): bound variably"
"RGADYSLRAVRMKIRPLVTQ (Equivalent to the c-erminus of fibrinogen alpha-E-chain) [CαE, haptotactic peptide homologous to the C-terminus of the fibrinogen αE chain, αE 828-847]",–,none of these peptides stimulated or inhibited proliferation,to a lesser degree; also recorded: significant haptotactic responses,–,–,–,–,–
SB-Cα: peptide-Cα (SEQ ID NO:4) covalently attached to sepharose beads (EADHEGTHSTKRGHAKSRP; also: attached to sepharose beads) [reference compound],–,–,No cell binding,–,0,0%,0,number of cell lines bound by SB-ligand out of 7 tested (tested cell lines): none; % Binding of peptide-coated SB to normal cultured cells [4]: 0%; % Binding of peptide-coated SB to normal cultured cells [5]: 0%; % Binding of peptide-coated SB to normal cultured cells [6]: 0%; % Binding of peptide-coated SB to normal cultured cells [7]: 1%
SB-Cγ: peptide Cγ (SEQ ID NO:5) covalently attached to sepharose beads (LTIGEGQQHHLGGAKQAGDV; also: attached to sepharose beads) [reference compound],–,–,–,Variable haptotaxis,2,2 to 93* %,1,% Binding of peptide-coated SB to normal cultured cells [4]: 0%; % Binding of peptide-coated SB to normal cultured cells [5]: 0%; % Binding of peptide-coated SB to normal cultured cells [7]: 2%
SB-PreCγ: peptide preCγ (SEQ ID NO:2) covalently attached to sepharose beads (KTRWYSMKKTTMKIIPFNRL; also: attached to sepharose beads),–,–,–,bound,100,100%,98,"cell lines excepted from binding to SB-ligand (all other tested lines bound) (tested cell lines): with the exception of OV-1063, keratinocytes and cells derived from a leucocytic lineage; cell binding to SB-ligand, in words [2]: bound; cell binding to SB-ligand, in words [3]: bound"
